Source: ChEMBL document CHEMBL1201862, “PubChem BioAssay data set” (2004)
The source made the active and inactive calls.

Experiments:
Large T antigen = Large T antigen (Simian virus 40, UniProt P03070); assay type: functional, Betapolyomavirus macacae;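 note: Confirmatory-stage PubChem screen for compounds that inhibit SV40 T antigen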
[1] = biological target: Induced myeloid leukemia cell differentiation protein Mcl-1 (Homo sapiens, UniProt Q07820); assay type: functional
[2] = biological target: T1, Rac GTPase-activating protein 1 (Homo sapiens, UniProt Q9H0H5); experiment: MgcRacGAP GTPase-activating activity inhibitors, confirmation, biochemical, ADP Hunter fluorescence, primary and confirmatory (AID 624330); assay type: functional
T1 sequence (Q9H0H5 whole entry): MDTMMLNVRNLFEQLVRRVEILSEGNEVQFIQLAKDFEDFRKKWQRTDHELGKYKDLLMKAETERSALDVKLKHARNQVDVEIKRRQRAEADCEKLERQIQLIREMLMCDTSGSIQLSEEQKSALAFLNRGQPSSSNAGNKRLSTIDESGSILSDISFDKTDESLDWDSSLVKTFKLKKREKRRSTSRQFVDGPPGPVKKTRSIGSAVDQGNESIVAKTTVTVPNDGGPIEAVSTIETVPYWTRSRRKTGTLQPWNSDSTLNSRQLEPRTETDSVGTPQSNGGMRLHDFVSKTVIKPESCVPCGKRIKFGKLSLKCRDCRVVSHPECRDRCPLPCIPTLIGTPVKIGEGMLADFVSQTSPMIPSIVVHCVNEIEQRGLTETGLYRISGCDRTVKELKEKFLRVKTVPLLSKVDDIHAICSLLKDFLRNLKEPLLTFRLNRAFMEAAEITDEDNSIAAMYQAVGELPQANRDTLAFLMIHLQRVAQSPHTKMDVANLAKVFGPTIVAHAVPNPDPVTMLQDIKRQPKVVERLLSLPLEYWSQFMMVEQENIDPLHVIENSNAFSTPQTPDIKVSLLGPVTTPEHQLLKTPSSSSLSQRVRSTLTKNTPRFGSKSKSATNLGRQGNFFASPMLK

[3] = tested on: Streptococcus sp. 'group A'; experiment: growth inhibition of control SK(-) GAS strain, dose response, counter-screen for streptokinase expression inhibitor project, luminescence, kanamycin, BacTiterGlo, confirmation (AID 1900); assay type: functional, organism-based
Streptokinase A = biological target: T2, Streptokinase A (Streptococcus pyogenes serotype M1, UniProt P10520); experiment: S. pyogenes streptokinase expression inhibitors, potency, dose response, plasminogen activation absorbance, OD405 (AID 1914); assay type: functional, Streptococcus pyogenes M1 GAS;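 note: secreted streptokinase activity via plasminogen activation per viability signal from cell pellet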
T2 sequence (P10520 whole entry): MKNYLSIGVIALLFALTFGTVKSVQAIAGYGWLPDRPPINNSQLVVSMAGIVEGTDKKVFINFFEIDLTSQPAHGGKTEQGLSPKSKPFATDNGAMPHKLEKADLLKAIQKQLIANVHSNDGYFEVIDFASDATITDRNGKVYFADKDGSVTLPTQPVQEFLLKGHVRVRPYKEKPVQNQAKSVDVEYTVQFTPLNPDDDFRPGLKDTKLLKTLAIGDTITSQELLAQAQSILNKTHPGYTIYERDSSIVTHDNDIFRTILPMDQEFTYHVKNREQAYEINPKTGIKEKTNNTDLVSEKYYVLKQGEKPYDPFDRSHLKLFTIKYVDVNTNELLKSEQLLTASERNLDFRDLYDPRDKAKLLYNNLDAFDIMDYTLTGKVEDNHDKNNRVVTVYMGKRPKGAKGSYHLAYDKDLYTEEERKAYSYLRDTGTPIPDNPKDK

Streptococcus = experiment: Group A Streptococcus viability loss, dose response, counter-screen for streptokinase expression inhibitor project, luminescence, BacTiterGlo (AID 1915); assay type: functional, organism-based;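 note: potency for reduction of bacterial viability or growth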
[4] = Vero E6 cell cytotoxicity, dose response, cytotoxicity control for non-replicating M. tuberculosis project, secondary assay (AID 492998); assay type: functional, VeroE6; conditions: Vero C1008
cells = assay type: functional
[5] = biological target: T3, Calpain-2 catalytic subunit (Sus scrofa, UniProt P43367); experiment: pig calpain II inhibitor potency, dose response, biochemical, fluorogenic peptide substrate (AID 1420); assay type: functional
T3 sequence (P43367 whole entry): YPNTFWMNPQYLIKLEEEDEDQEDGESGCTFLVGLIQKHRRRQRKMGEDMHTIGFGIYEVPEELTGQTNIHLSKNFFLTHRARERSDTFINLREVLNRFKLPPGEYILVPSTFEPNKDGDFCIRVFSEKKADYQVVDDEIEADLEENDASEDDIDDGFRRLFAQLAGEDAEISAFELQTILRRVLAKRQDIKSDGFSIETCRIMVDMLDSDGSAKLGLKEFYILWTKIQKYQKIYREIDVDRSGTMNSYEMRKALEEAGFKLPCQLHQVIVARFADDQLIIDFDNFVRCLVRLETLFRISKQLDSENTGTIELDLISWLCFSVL

[6] = biological target: Voltage-dependent T-type calcium channel subunit alpha-1H (Homo sapiens, UniProt O95180); assay type: functional;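 note: channel activity triggered by adding a high calcium stimulation buffer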
[7] = biological target: T4, Carboxy-terminal domain RNA polymerase II polypeptide A small phosphatase 1 (Homo sapiens, UniProt Q9GZU7); experiment: inhibitors of CTDSP1, concentration-response testing, biochemical assay, absorbance-based, actives from ultra-high-throughput screening (AID 540297); assay type: functional
T4 sequence (Q9GZU7 whole entry): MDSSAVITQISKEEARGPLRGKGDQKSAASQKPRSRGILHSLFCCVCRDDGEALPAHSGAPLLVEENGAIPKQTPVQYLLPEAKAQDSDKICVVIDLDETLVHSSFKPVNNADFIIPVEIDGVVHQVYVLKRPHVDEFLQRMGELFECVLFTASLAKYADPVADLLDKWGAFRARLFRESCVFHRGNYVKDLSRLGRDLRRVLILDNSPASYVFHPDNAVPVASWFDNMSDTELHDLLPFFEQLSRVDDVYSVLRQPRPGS

Leucine aminopeptidase = biological target: T5, Leucine aminopeptidase (Plasmodium falciparum 3D7, UniProt Q8IL11); experiment: P. falciparum M17LAP inhibitors, primary screen, biochemical, fluorogenic H-Leu-NHMec substrate, 1536-well (AID 1619); assay type: functional
T5 sequence (Q8IL11 whole entry): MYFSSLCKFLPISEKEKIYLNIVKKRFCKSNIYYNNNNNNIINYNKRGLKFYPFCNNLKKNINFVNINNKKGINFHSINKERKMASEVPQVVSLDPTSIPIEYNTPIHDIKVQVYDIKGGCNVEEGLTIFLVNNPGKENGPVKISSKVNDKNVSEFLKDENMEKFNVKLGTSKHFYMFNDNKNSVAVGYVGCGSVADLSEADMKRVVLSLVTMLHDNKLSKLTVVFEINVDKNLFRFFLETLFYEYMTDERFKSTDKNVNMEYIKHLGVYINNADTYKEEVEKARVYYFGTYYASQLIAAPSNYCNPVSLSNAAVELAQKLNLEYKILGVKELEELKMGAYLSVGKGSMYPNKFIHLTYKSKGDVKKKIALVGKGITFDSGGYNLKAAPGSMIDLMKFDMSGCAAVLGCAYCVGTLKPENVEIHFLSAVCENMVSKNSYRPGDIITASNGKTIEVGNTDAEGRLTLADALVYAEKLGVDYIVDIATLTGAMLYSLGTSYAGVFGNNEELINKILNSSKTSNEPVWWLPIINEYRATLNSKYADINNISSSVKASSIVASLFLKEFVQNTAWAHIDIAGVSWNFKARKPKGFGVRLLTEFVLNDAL

[8] = biological target: FAD-linked sulfhydryl oxidase ALR (Homo sapiens, UniProt P55789); experiment: inhibitors of human ALR sulfhydryl oxidase, dose response, biochemical, H2O2 detection, luminescence, cherry-pick (AID 493248)
Vero [9] = experiment: Vero cell cytotoxicity, cytotoxicity control for flavivirus capping enzyme inhibitors (AID 588742); assay type: functional; conditions: Chlorocebus sabaeus
Cytochrome P450 2C9 = Cytochrome P450 2C9 (Homo sapiens, UniProt P11712)
[10] = biological target: Eukaryotic translation initiation factor 4E (Mus musculus, UniProt P63073); experiment: eIF4E–eIF4G protein interaction inhibitors, dose response, biochemical, TR-FRET (AID 855); assay type: functional;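 note: potency for disrupting eIF4E binding to eIF4GI seen as loss of FRET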
[11] = biological target: 26S proteasome non-ATPase regulatory subunit 14 (Homo sapiens, UniProt O00487); experiment: inhibition of proteasome subunit RPN11 – biochemical, fluorescence polarization, uHTS hits, confirmation (AID 602368); assay type: functional
[12] = biological target: 72 kDa type IV collagenase (Homo sapiens, UniProt P08253); experiment: Dose Response validation of uHTS RPN11 inhibitor hits using a MMP-2 Fluorescence assay.; assay type: functional
Prothrombin = Prothrombin (Bos taurus, UniProt P00735); experiment: thrombin inhibition, dose response, biochemical, fluorescence polarization, uHTS hits (AID 602369); assay type: functional
[13] = inhibitors of firefly luciferase expression or activity, dose response, H4 neuroglioma cells, luminescence (AID 1990); assay type: functional, cell-based
[14] = Luminescence Cell-Based Dose Response HTS to Identify Inhibitors of 5'UTR Stem-Loop Driven Prion Protein mRNA Translation in H4 Neuroglioblastoma Cells. [Related pubchem assays: 1827 (Project Summary), 1813 (Primary HTS)]; assay type: functional
[15] = inhibitors of SNCA 5'UTR-driven reporter translation, confirmation, H4 neuroglioma cells, luminescence (AID 1988); assay type: functional, cell-based
[16] = Luminescence Cell-Based Dose Retest to Confirm Inhibitors of Cancer Stem Cells. [Related pubchem assays (depositor defined):AID2717, AID2721]; assay type: functional; conditions: Homo sapiens
Vero [17] = experiment: cells; assay type: functional; conditions: Chlorocebus sabaeus
[18] = biological target: Glucose-6-phosphate 1-dehydrogenase (Homo sapiens, UniProt P11413); experiment: human G6PD enzyme inhibitors, dose response, selectivity assay for P. falciparum G6PD inhibitor project, biochemical, fluorescence (AID 504792); assay type: functional
[19] = THP-1 cell cytotoxicity, dose response, cytotoxicity control for non-replicating M. tuberculosis project (AID 489025); assay type: functional
[20] = biological target: T6, Heat shock factor protein 1 (Mus musculus, UniProt P38532); experiment: HSF1 potentiators in luciferase reporter cells, confirmation, cell-based, NIH3T3, luminescence, dose retest (AID 435004); assay type: functional;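 note: stress induced by proteasome inhibitor MG132 added 30 min after compound; luciferase reporter driven by HSF1 response element in NIH3T3 cells; actives raise luminescence as potentiators of the MG132 stress response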
T6 sequence (P38532 whole entry): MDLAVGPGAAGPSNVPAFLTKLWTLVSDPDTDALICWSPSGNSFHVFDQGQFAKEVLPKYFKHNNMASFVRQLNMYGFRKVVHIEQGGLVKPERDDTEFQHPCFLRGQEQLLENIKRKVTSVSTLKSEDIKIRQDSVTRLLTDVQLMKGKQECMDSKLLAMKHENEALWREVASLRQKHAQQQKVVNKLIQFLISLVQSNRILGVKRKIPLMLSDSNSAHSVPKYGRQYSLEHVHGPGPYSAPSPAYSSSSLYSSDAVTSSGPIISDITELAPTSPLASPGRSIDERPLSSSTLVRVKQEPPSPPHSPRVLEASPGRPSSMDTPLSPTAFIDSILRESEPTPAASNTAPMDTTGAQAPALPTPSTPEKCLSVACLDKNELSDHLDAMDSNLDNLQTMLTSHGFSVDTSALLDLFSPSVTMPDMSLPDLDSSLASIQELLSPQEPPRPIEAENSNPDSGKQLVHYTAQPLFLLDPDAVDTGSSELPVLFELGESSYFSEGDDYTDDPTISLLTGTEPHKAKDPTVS

Chain of Eukaryotic translation initiation factor 4E (P63073 whole entry): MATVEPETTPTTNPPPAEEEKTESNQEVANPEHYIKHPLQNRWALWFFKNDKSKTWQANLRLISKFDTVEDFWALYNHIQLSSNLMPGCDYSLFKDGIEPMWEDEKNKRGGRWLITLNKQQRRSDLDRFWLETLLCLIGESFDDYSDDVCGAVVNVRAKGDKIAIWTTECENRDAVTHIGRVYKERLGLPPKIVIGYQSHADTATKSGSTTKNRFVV
Chain of Large T antigen (P03070 whole entry): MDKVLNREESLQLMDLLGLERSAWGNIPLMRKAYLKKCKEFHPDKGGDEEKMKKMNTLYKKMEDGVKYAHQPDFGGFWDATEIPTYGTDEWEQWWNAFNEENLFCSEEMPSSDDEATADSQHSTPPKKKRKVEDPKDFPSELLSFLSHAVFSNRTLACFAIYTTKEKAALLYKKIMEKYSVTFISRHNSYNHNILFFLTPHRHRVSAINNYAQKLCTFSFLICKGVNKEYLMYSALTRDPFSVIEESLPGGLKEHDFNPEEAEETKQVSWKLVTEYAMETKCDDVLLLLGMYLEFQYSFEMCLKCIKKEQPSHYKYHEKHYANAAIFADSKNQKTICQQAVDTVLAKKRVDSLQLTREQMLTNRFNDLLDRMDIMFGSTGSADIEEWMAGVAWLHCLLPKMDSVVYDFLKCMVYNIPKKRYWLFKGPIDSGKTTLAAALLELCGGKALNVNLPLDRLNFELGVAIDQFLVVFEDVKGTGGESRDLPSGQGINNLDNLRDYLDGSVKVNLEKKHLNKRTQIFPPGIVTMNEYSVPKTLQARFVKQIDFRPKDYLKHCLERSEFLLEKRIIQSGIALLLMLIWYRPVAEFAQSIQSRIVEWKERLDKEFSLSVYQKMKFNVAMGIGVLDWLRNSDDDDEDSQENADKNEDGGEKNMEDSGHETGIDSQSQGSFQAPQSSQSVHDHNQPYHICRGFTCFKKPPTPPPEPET
Chain of Induced myeloid leukemia cell differentiation protein Mcl-1 (Q07820 whole entry): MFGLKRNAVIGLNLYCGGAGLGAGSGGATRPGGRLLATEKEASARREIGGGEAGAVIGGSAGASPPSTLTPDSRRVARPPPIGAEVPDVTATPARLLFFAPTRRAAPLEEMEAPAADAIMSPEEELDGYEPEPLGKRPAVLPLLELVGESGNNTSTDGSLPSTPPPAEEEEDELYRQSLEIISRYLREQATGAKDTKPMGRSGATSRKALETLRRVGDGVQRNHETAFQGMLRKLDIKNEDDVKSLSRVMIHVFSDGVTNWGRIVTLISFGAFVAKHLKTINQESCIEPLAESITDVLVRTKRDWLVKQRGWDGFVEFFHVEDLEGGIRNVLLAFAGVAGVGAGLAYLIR
Chain of Glucose-6-phosphate 1-dehydrogenase (P11413 whole entry): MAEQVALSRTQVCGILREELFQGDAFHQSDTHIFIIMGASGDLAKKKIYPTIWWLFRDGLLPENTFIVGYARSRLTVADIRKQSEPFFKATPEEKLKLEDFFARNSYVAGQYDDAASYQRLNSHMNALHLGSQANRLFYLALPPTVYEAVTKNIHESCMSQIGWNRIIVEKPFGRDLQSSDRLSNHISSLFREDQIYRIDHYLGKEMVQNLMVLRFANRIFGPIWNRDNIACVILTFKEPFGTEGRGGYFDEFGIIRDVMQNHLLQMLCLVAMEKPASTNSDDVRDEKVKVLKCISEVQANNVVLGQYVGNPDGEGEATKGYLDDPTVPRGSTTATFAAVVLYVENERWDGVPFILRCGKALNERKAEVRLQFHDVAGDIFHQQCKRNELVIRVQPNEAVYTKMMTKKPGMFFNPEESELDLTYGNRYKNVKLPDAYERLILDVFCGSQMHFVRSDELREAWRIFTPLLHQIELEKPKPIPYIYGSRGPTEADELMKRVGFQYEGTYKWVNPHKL
Chain of Cytochrome P450 2C9 (P11712 whole entry): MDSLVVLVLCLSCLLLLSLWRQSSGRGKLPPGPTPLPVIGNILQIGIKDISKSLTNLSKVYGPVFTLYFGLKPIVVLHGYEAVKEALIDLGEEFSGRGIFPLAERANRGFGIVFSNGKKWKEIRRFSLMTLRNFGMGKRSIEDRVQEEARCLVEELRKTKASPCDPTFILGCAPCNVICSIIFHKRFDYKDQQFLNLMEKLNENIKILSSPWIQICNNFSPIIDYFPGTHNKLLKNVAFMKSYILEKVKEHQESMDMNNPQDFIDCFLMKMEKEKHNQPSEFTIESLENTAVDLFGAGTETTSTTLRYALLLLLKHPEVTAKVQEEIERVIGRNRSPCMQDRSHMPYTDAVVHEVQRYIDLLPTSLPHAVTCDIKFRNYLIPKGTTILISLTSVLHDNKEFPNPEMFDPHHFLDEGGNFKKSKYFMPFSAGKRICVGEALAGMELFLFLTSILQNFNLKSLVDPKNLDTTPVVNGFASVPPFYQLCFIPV
Chain of Voltage-dependent T-type calcium channel subunit alpha-1H (O95180 whole entry, the tested form may be a part): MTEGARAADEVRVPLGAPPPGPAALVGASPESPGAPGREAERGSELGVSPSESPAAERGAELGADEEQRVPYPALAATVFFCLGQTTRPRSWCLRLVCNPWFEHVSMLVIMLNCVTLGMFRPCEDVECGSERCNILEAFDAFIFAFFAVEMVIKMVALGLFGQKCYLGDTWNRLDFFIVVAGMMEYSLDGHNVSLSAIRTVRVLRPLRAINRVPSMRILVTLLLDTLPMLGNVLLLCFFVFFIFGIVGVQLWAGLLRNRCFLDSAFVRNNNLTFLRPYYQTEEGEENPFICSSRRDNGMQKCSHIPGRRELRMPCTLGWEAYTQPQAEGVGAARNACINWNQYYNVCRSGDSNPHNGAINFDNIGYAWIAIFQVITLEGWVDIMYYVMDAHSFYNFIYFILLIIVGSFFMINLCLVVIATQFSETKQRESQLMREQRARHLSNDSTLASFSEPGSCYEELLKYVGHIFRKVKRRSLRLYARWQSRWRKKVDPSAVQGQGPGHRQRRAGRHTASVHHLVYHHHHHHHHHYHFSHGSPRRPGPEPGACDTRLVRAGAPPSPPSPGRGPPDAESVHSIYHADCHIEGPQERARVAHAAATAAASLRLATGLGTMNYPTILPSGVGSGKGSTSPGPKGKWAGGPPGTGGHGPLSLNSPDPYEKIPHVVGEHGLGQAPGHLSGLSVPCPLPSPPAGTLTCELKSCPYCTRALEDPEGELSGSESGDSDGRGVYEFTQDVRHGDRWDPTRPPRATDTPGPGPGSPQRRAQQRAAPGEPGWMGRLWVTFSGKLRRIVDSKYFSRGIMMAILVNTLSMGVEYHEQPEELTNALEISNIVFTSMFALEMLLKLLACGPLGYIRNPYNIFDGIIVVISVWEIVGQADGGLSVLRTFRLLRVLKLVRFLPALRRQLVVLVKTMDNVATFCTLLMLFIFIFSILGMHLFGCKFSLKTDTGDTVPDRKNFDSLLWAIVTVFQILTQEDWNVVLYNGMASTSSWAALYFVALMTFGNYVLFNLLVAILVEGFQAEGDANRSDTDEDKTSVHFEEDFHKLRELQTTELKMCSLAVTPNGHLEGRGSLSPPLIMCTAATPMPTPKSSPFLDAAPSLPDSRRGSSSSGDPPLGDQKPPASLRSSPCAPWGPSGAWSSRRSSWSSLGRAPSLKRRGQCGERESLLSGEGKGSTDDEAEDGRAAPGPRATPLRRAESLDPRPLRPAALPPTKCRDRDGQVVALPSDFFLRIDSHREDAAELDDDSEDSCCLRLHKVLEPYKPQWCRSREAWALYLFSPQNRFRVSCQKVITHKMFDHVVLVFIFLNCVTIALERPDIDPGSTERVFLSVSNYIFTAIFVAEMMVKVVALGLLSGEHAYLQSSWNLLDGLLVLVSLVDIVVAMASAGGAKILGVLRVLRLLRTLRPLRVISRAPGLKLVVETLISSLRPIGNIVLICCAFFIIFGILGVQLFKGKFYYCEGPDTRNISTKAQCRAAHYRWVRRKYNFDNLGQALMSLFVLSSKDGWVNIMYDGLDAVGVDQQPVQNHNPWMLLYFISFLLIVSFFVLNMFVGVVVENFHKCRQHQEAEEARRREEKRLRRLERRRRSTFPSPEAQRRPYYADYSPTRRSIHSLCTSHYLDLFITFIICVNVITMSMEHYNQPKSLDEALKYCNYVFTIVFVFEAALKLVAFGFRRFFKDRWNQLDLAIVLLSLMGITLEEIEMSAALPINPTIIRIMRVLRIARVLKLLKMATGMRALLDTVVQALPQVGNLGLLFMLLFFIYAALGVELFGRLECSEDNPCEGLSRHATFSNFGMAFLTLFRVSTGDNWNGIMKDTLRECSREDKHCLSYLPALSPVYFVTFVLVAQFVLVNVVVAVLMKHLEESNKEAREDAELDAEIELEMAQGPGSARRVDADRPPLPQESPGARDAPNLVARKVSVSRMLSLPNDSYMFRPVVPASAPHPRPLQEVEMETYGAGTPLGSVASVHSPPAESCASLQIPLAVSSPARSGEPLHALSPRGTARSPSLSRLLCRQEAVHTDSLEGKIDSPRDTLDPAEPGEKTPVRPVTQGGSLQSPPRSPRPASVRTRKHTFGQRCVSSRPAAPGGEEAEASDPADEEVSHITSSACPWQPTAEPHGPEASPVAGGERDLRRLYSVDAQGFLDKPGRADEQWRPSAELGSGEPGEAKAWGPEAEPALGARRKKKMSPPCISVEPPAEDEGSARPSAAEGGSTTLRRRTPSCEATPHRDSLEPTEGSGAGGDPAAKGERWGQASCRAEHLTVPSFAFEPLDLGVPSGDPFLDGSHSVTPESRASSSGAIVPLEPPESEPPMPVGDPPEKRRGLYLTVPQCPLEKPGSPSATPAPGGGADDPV
Chain of FAD-linked sulfhydryl oxidase ALR (P55789 whole entry): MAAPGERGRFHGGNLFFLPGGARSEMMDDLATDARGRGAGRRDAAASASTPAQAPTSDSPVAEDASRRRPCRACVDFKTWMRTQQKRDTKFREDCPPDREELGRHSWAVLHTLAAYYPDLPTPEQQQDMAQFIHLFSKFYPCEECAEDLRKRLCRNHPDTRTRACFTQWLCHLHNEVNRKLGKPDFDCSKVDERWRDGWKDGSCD

SMILES: CCCCN1C(=O)/C(=C(/C#N)C(N)=O)c2ccccc21
- IC50 (Large T antigen): 60.5 µM (active)

SMILES: O=C1CSC(=S)N1/N=C/c1ccc(O)c([N+](=O)[O-])c1
- IC50 (Large T antigen): 26.8 µM (active)
- IC50 [1]: 6.99 µM (active)

SMILES: COc1cc(/C=N\Nc2cc(=O)n(C)c(=O)n2C)ccc1O
- IC50 (Large T antigen): 23.7 µM (active)
- IC50 [2]: 33.7 µM (active)

SMILES: O=C(Nc1nccs1)c1sc2ccccc2c1Cl
- EC50 [3]: 18.4 µM (active)
- EC50 (Streptokinase A): > 150 µM (not active)
- EC50 (Streptococcus): > 150 µM (not active)
- CC50 [4]: > 20 µM (active)
- IC50 (cells): 20.5 µM (active)

SMILES: Cc1ccc2oc(=O)n(Cc3ccccc3OC(C)C)c2c1
- IC50 [5]: > 50 µM (not active)
- EC50 [6]: 8.57 µM (active)

SMILES: CC[N+]1=CN(c2ccccc2)C(C)=CC1(C)C
- IC50 [7]: 6.23 µM (active)

SMILES: O=C(Nc1nc(=O)[nH]s1)c1ccccc1
- IC50 (Leucine aminopeptidase): 18.1 µM (active)
- IC50 [5]: > 50 µM (not active)

SMILES: O=C(c1ccc2ccccc2c1)N1CCN(c2ccc(O)cc2)CC1
- IC50 (Large T antigen): 9.84 µM (active)

SMILES: CCN(CC)c1ccc(NC(=O)c2cccc(F)c2)c(C)c1
- IC50 (Large T antigen): 28.3 µM (active)
- AC50 [8]: 1.19 µM (active)
- CC50 (Vero [9]): > 40 µM (active)
- AC50 (Cytochrome P450 2C9): inconclusive

SMILES: O=[N+]([O-])C(=c1ccc2c(c1)N1C3=C(CCCC3)CC3CCCCC31N=2)[N+](=O)[O-] (stereo not given)
- IC50 [1]: 1.95 µM (active)

SMILES: Cc1cccc(-c2nnc(SCC3CNC(=O)O3)n2-c2ccc(Cl)cc2)c1 (stereo not given)
- IC50 [10]: > 64 µM (inactive)

SMILES: O=C(O)c1ccc(COc2ccccc2/C=C2/NC(=O)N(c3cccc(Cl)c3)C2=O)cc1
- IC50 [7]: 2.75 µM (active)
- IC50 [11]: 18.7 µM (active)
- IC50 [12]: 15.6 µM (active)
- IC50 (Prothrombin): > 100 µM (inactive)

SMILES: COc1ccc(CCn2c(C3CCCCC3)nc3c(c(=O)c4ccccc4n3C)c2=O)cc1
- EC50 [13]: > 120 µM (not active)
- EC50 [14]: 438 nM (active)
- EC50 [15]: 17.1 µM (active)
- AC50 [16]: 2.4 µM (active)
- CC50 (Vero [17]): 9.23 µM (active)

SMILES: CC(=O)c1cccc(NC(=O)c2cnn(-c3ccccc3)c2C)c1
- IC50 [18]: > 80 µM (inactive)

SMILES: Cc1cc(OCC[N+]2(C)CCCCC2)nc2ccccc12
- IC50 [7]: 3.69 µM (active)

SMILES: O=C1NC(=S)N(Cc2ccco2)C(=O)/C1=C\c1cccs1
- IC50 [10]: 9.49 µM (active)

SMILES: N#Cc1ccc(-c2csc(NC3=NCCCCC3)n2)cc1
- IC50 [10]: > 64 µM (inactive)

SMILES: O=C(CNC1CCCC1)Nc1ccc(N2CCCCCC2)cc1
- CC50 [4]: 18.1 µM (active)
- IC50 (cells): 17.8 µM (active)
- IC50 [2]: 75.8 µM (active)

SMILES: CC1(C)CC(=O)C2=C(C1)OC(N)=C(C#N)C2C#Cc1ccccc1 (stereo not given)
- CC50 [19]: 38.4 µM (active)
- EC50 [20]: 38.3 µM (active)
